This experiment deals with Plasmodium berghei. The experiment in a line: Luciferase/luciferin-expressing antifolate-resistant parasites were used to infect a culture of HepG2 cells that were pre-incubated with compounds. Infected hepatocytes emit light due to the luciferase reaction. Assay results are presented as the percent inhibition of light emission compared to control. […]. The conditions noted are these: sporozoite; for IC90: read-out: LUCIFERASE INFECTION ASSAY - IC90. It counts as functional.

Where [1] appears, read: read-out: LUCIFERASE INFECTION ASSAY - IC50.

Where only a bound is given, the exact number is not on record here.

One may read the IC50 as the midpoint of a concentration-inhibition curve. The term IC90 denotes the concentration needed for an effect of 90%. In the case of `C=CCNc1nc(Nc2ccc(OC)c(OC)c2)c2sc(-c3ccccc3)cc2n1`, the IC90 was greater than 7.88 µM. For the same compound, the IC50 under setting [1] was 3.61 µM.

In the case of `N#C/C(=C\c1ccc([N+](=O)[O-])s1)C(N)=S`, the IC90 was greater than 13.8 µM. Moreover, for the setting “FFLUC_HILL_SLOPE 3.11, FFLUC_R_SQUARED 0.767, read-out: LUCIFERASE INFECTION ASSAY - IC50”, the IC50 is greater than 13.8 µM.

`CC(C)(C)NC(=S)Nc1cc(C(F)(F)F)c(Cl)cc1Cl`: the IC90 is greater than 9.56 µM. Moreover, the IC50 under setting [1] was greater than 9.56 µM.

Consider `Cc1ccc2cc(COC(=O)/C(=C/c3ccccc3)n3nnnc3C)c(Cl)nc2c1`, for which the IC90 is greater than 10 µM. For the setting “FFLUC_HILL_SLOPE 11.2, FFLUC_R_SQUARED 0.126, read-out: LUCIFERASE INFECTION ASSAY - IC50”, the IC50 was greater than 10 µM.

With `Cc1c(C(=O)Nc2cccc(Cl)c2)sc2nc(C(F)(F)F)nn12`, the IC90 is greater than 9.15 µM. Under setting [1], the IC50 was greater than 9.15 µM.

Take `CC(C)(C)c1cc(-c2cc(C(F)(F)F)[nH]n2)c2c(c1)C(C)(C)CC2`: the IC90 was greater than 9.81 µM. The 50% inhibitory concentration (IC50) (FFLUC_HILL_SLOPE 11.7, FFLUC_R_SQUARED 0.064, read-out: LUCIFERASE INFECTION ASSAY - IC50) was greater than 9.81 µM.

On to `COc1ccc(-c2nnc(SCC(=O)Nc3cc(-c4cc(C)c(C)cc4C)nn3-c3ccccc3)n2C(C)C)cc1`, for which the IC90 is greater than 10 µM. The IC50 under setting [1] was greater than 10 µM.

Consider `O=C(Nc1ccccc1)N1CCc2nc(NCc3cccc(Oc4ccccc4)c3)ncc2C1`, for which the IC90 worked out at 3.15 µM. In addition, the IC50 (HEPG2TOX_HILL_SLOPE 4.26, HEPG2TOX_R_SQUARED 0.801, PBLUC_HILL_SLOPE 11.5, PBLUC_R_SQUARED 0.365, read-out: LUCIFERASE INFECTION ASSAY - IC50) is 2.6 µM.

For the compound `Cc1onc(-c2ccc(Cl)cc2Cl)c1-c1csc(Nc2cc(C(F)(F)F)cc(C(F)(F)F)c2)n1`, the IC90 is 2.73 µM. Besides, the IC50 (HEPG2TOX_HILL_SLOPE 2.62, HEPG2TOX_R_SQUARED 0.945, PBLUC_HILL_SLOPE 2.66, PBLUC_R_SQUARED 0.706, read-out: LUCIFERASE INFECTION ASSAY - IC50) came to 1.19 µM.

With `Cc1nn(-c2ccccc2)c(Sc2nc3ccccc3s2)c1/C=N/N1CCN(c2ccccn2)CC1`, the IC90 came out at 7.21 µM. For the setting “HEPG2TOX_HILL_SLOPE 19.8, HEPG2TOX_R_SQUARED 0.361, PBLUC_HILL_SLOPE 5.19, PBLUC_R_SQUARED 0.522, read-out: LUCIFERASE INFECTION ASSAY - IC50”, the IC50 was determined as 4.72 µM.

`CN1CCN(c2ccc(Cl)cc2NC(=O)CCc2nc3ccccc3s2)CC1`: the IC90 was greater than 10 µM. Besides, under setting [1], the IC50 is greater than 10 µM.

In the case of `CCCc1cc(C(=O)Nc2ccc(OC(F)F)cc2)sc1C`, the IC90 is greater than 10 µM. Also, the IC50 (PBLUC_HILL_SLOPE 2.93, PBLUC_R_SQUARED 0.424, read-out: LUCIFERASE INFECTION ASSAY - IC50) was found to be 8.81 µM.

For `CC(=O)Nc1cccc(/C(C)=N/n2c(-c3cccc([N+](=O)[O-])c3)cs/c2=N\c2c(C)cccc2C)c1`, the concentration for an effect of 90% (IC90) came to 4.17 µM. Also, under “FFLUC_HILL_SLOPE 18.6, FFLUC_R_SQUARED 0.557, PBLUC_HILL_SLOPE 12.4, PBLUC_R_SQUARED 0.7, read-out: LUCIFERASE INFECTION ASSAY - IC50”, the IC50 was 3.49 µM.

In the case of `O=C(CN1C(=O)c2cccc([N+](=O)[O-])c2C1=O)OCC(=O)N1CCC(Cc2ccccc2)CC1`, the IC90 is greater than 10 µM. In addition, the IC50 under setting [1] was greater than 10 µM.

Turning to `OCCNCCNCc1c(OCc2ccccc2F)ccc2ccccc12`, the IC90 was greater than 8.96 µM. In addition, the IC50 under setting [1] was greater than 8.96 µM.

With `CN(C)S(=O)(=O)c1ccc(NC(=O)COc2ccc(Oc3ccc(C(F)(F)F)cn3)cc2)cc1`, the IC90 was greater than 10 µM. Besides, the IC50 under setting [1] is greater than 10 µM.

Consider `Cc1cccc(C(=O)Nc2nc3ccc(C)cn3c2C(=O)NC2CCCC2)c1`, for which the IC90 amounted to 7.46 µM. Also, the half-inhibitory concentration (IC50) (PBLUC_HILL_SLOPE 3.54, PBLUC_R_SQUARED 0.461, read-out: LUCIFERASE INFECTION ASSAY - IC50) stood at 4.01 µM.

With `COc1cc(OC)c(C(=O)N2CC=C(c3c[nH]c4ccccc34)CC2)cc1OC`, the IC90 is greater than 10 µM. The half-maximal inhibitory concentration (IC50) under setting [1] is greater than 10 µM.

With `CCCCc1ccc(NC(=O)c2cc(OC)c(OC)c(OC)c2)cc1`, the IC90 was greater than 9.61 µM. For the same compound, the IC50 under setting [1] was greater than 9.61 µM.

For the compound `CC1(C(=O)Nc2ccncc2)CCN1Cc1ccc2ccccc2c1` (stereo not drawn), the IC90 is 7.13 µM. For the same compound, the IC50 (HEPG2TOX_HILL_SLOPE 0.704, HEPG2TOX_R_SQUARED 0.958, PBLUC_HILL_SLOPE 1.6, PBLUC_R_SQUARED 0.488, read-out: LUCIFERASE INFECTION ASSAY - IC50) stood at 1.8 µM.

Consider `O=C(COc1ccc(F)cc1)N1CCC(Cc2ccccc2)CC1`, for which the IC90 was greater than 10.1 µM. Besides, the IC50 (PBLUC_HILL_SLOPE 1.27, PBLUC_R_SQUARED 0.405, read-out: LUCIFERASE INFECTION ASSAY - IC50) was 4.23 µM.

For `C/N=c1\scc(-c2ccc(OC(F)F)cc2)n1/N=C/c1ccccc1Br`, the IC90 came out at 3.26 µM. Also, the IC50 (HEPG2TOX_HILL_SLOPE 2.13, HEPG2TOX_R_SQUARED 0.347, PBLUC_HILL_SLOPE 0.898, PBLUC_R_SQUARED 0.747, read-out: LUCIFERASE INFECTION ASSAY - IC50) stood at 0.283 µM.

For the compound `Cc1ccc(C(=O)NC(C)C)n1C`, the IC90 amounted to 0.447 µM. In addition, the IC50 (PBLUC_HILL_SLOPE 12.7, PBLUC_R_SQUARED 0.475, read-out: LUCIFERASE INFECTION ASSAY - IC50) stood at 0.376 µM.

With `Brc1ccc(C2C(c3nc4ccccc4[nH]3)=C(c3ccccc3)N=C(c3ccccc3)C2c2nc3ccccc3[nH]2)cc1` (stereo not drawn), the IC90 is greater than 10 µM. Besides, under setting [1], the IC50 was greater than 10 µM.

`CN(CC(=O)Nc1ccc(F)c(F)c1F)c1cnccn1`: the IC90 was greater than 10 µM. For the same compound, the IC50 under setting [1] is greater than 10 µM.

Consider `CC(=O)c1cnc(N)nc1C`, for which the IC90 is greater than 21.8 µM. In addition, the IC50 under setting [1] is greater than 21.8 µM.

As to `COc1ccc(C2c3ccc4ccccc4c3OC(=N)C2C#N)cc1` (stereo not drawn), the concentration for an effect of 90% (IC90) was greater than 10 µM. In addition, the IC50 under setting [1] was greater than 10 µM.

On to `Cc1cc(C(C)(C)C)cc(C)c1CCNC(=O)C1CC1C` (stereo not drawn), for which the IC90 amounted to 9.15 µM. Further, the IC50 (HEPG2TOX_HILL_SLOPE 11.1, HEPG2TOX_R_SQUARED 0.0296, PBLUC_HILL_SLOPE 3.7, PBLUC_R_SQUARED 0.553, read-out: LUCIFERASE INFECTION ASSAY - IC50) turned out to be 5.05 µM.

Take `O=C(Nc1ccc(N2CCN(c3ncccc3C(F)(F)F)CC2)nc1)c1cccs1`: the IC90 is 0.867 µM. Besides, the IC50 (PBLUC_HILL_SLOPE 2.12, PBLUC_R_SQUARED 0.656, read-out: LUCIFERASE INFECTION ASSAY - IC50) is 0.307 µM.

Consider `O=C(Nc1ccc(-c2nccs2)cc1)c1occc1COc1ccccc1`, for which the IC90 was greater than 10 µM. Further, under setting [1], the IC50 is greater than 10 µM.

For `COC(=O)c1c(C)[nH]c(C(=O)CSc2nnc(C)s2)c1C`, the IC90 is greater than 10 µM. Besides, the IC50 under setting [1] was greater than 10 µM.

For the compound `CCN(CC)C(=O)CN1CCN(C(=O)c2ccc(S(=O)(=O)N3CCOCC3)cc2)CC1`, the IC90 was greater than 10 µM. Moreover, the IC50 under setting [1] is greater than 10 µM.

For the compound `Nc1ncc(-c2cccc(OC(F)(F)F)c2)cc1-c1cccnc1`, the IC90 is greater than 9.96 µM. For the same compound, for the setting “HEPG2TOX_HILL_SLOPE 1.26, HEPG2TOX_R_SQUARED 0.924, PBLUC_HILL_SLOPE 2.1, PBLUC_R_SQUARED 0.295, read-out: LUCIFERASE INFECTION ASSAY - IC50”, the IC50 was found to be 5.18 µM.

In the case of `Cc1c(C)n(Cc2ccccc2)c2ncn3nc(-c4cccnc4)nc3c12`, the IC90 was greater than 9.31 µM. The IC50 under setting [1] is greater than 9.31 µM.

In the case of `Cn1cccc1C(=O)Nc1nc(-c2ccccn2)cs1`, the IC90 turned out to be 4.04 µM. In addition, the 50% inhibitory concentration (IC50) (HEPG2TOX_HILL_SLOPE 2.43, HEPG2TOX_R_SQUARED 0.643, PBLUC_HILL_SLOPE 14.5, PBLUC_R_SQUARED 0.519, read-out: LUCIFERASE INFECTION ASSAY - IC50) stood at 3.47 µM.

For the compound `Cc1cccc(NS(=O)(=O)c2cc(C(=O)OCC(=O)Nc3ccc(F)c(F)c3F)ccc2C)c1`, the IC90 is greater than 10 µM. Besides, the IC50 under setting [1] is greater than 10 µM.

With `Cc1nc(=O)c2c([nH]1)NC(=O)CC2c1ccccc1C` (stereo not drawn), the IC90 was greater than 12.3 µM. The IC50 under setting [1] is greater than 12.3 µM.

For the compound `Cc1nn(-c2ccccc2)c2sc(C(=O)NNc3nc(CN4CCOCC4)nc4scc(-c5ccccc5)c34)cc12`, the IC90 was greater than 10 µM. Besides, where the note is “HEPG2TOX_HILL_SLOPE 1.59, 8.29, HEPG2TOX_R_SQUARED 0.901, 0.855, PBLUC_HILL_SLOPE 12, PBLUC_R_SQUARED 0.591, read-out: LUCIFERASE INFECTION ASSAY - IC50”, the IC50 is 8.46 µM.

On to `O=C(Nc1ccc(-c2nccs2)cc1)c1cc(Br)c[nH]1`, for which the IC90 is greater than 10 µM. The IC50 under setting [1] was found to be 7.5 µM.

Consider `O=C(/C=C/c1ccccc1[N+](=O)[O-])c1cccc(C(F)(F)F)c1`, for which the IC90 came to 5.08 µM. Besides, the IC50 under setting [1] came out at 4.89 µM.

Turning to `COCCn1c(C(=O)OC)c(NC(=O)c2ccco2)c2cc(NCC(C)c3ccccc3)cnc21` (stereo not drawn), the IC90 is greater than 6.93 µM. In addition, the IC50 (PBLUC_HILL_SLOPE 27.9, PBLUC_R_SQUARED 0.298, read-out: LUCIFERASE INFECTION ASSAY - IC50) worked out at 6.65 µM.

Take `O=c1cc(CN2CCN(C(c3ccc(F)cc3)c3ccc(F)cc3)CC2)nc2ccc(Cl)cn12`: the IC90 was 9.88 µM. Also, under “PBLUC_HILL_SLOPE 16, PBLUC_R_SQUARED 0.275, read-out: LUCIFERASE INFECTION ASSAY - IC50”, the IC50 was determined as 8.61 µM.

`Nc1nc2c(c(C(F)(F)F)n1)CCc1ccccc1-2`: the IC90 was greater than 12.4 µM. Further, the IC50 under setting [1] was greater than 12.4 µM.

On to `O=[N+]([O-])c1cc(/C=N/O)ccc1Oc1ccc(Cl)cc1`, for which the IC90 is greater than 11.3 µM. Besides, the IC50 (PBLUC_HILL_SLOPE 1.72, PBLUC_R_SQUARED 0.416, read-out: LUCIFERASE INFECTION ASSAY - IC50) was 6.18 µM.

Source of the values: ChEMBL document CHEMBL4483862, “Open-source discovery of chemical leads for next-generation chemoprotective antimalarials” (2018).
